Source: US20260125360A1, “HERBICIDAL IMIDAZOLE COMPOUNDS” (SYNGENTA CROP PROTECTION AG, priority 2022, published 2026)

Experiments:
Type in all cases: in vivo
Details in all cases: 250 g/ha, evaluated after 13 days
[1] = test system: Echinochloa crus-galli (ECHCG); assay: Pre-emergence herbicide glasshouse test
Procedure, shortened: (§1)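 Percentage plant damage, rated on a five-point scale (5=81-100%; 1=0-20%), is assessed 13 days after treatment. Sprays are applied at 250 g/ha unless otherwise stated, one day after sowing for pre-emergence and eight days after for post-emergence, from acetone/water (50:50) containing 0.5% Tween 20.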

[2] = test system: Ipomoea hederacea (IPOHE); assay: Pre-emergence herbicide glasshouse test
Procedure, shortened: as §1

[3] = test system: Amaranthus palmeri (AMAPA); assay: Pre-emergence herbicide glasshouse test
Procedure, shortened: as §1

[4] = test system: Amaranthus retoflexus (AMARE); assay: Pre-emergence herbicide glasshouse test
Procedure, shortened: as §1

[5] = test system: Echinochloa crus-galli (ECHCG); assay: Post-emergence herbicide glasshouse test
Procedure, shortened: as §1

[6] = test system: Ipomoea hederacea (IPOHE); assay: Post-emergence herbicide glasshouse test
Procedure, shortened: as §1

[7] = test system: Amaranthus palmeri (AMAPA); assay: Post-emergence herbicide glasshouse test
Procedure, shortened: as §1

[8] = test system: Amaranthus retoflexus (AMARE); assay: Post-emergence herbicide glasshouse test
Procedure, shortened: as §1

| Structure (SMILES) | percentage damage caused to the plant, ECHCG (five-point scale) [1] | percentage damage caused to the plant, IPOHE (five-point scale) [2] | percentage damage caused to the plant, AMAPA (five-point scale) [3] | percentage damage caused to the plant, AMARE (five-point scale) [4] | percentage damage caused to the plant, ECHCG (five-point scale) [5] | percentage damage caused to the plant, IPOHE (five-point scale) [6] | percentage damage caused to the plant, AMAPA (five-point scale) [7] | percentage damage caused to the plant, AMARE (five-point scale) [8] |
| --- | --- | --- | --- | --- | --- | --- | --- | --- |
| Cc1nc(Cn2cc(C(F)(F)F)nc2-c2ccc(S(C)(=O)=O)cc2)no1 [Compound 1.159] | 1 (1=0-20%) | 5 (5=81-100%) | 5 (5=81-100%) | 5 (5=81-100%) | 2 (2=21-40%) | 5 (5=81-100%) | 5 (5=81-100%) | 5 (5=81-100%) |
| Cc1nc(Cn2cc(C(F)(F)F)nc2-c2cnc(F)c(Cl)c2)no1 [Compound 1.160] | 5 (5=81-100%) | 5 (5=81-100%) | 5 (5=81-100%) | 5 (5=81-100%) | 5 (5=81-100%) | 4 (4=61-80%) | 5 (5=81-100%) | 5 (5=81-100%) |
| Cc1cc(Cn2cc(C(F)(F)F)nc2-c2ccc(S(C)(=O)=O)cc2)ns1 [Compound 1.161] | 5 (5=81-100%) | 5 (5=81-100%) | 5 (5=81-100%) | 5 (5=81-100%) | 5 (5=81-100%) | 5 (5=81-100%) | 5 (5=81-100%) | 5 (5=81-100%) |
| Cc1cc(Cn2cc(C(F)(F)F)nc2-c2ccc(F)c(F)c2)ns1 [Compound 1.162] | 5 (5=81-100%) | 3 (3=41-60%) | 5 (5=81-100%) | 5 (5=81-100%) | 5 (5=81-100%) | 4 (4=61-80%) | 5 (5=81-100%) | 5 (5=81-100%) |
| Cc1cc(Cn2cc(C(F)(F)F)nc2-c2cnc(F)c(Cl)c2)no1 [Compound 1.163] | 5 (5=81-100%) | 5 (5=81-100%) | 5 (5=81-100%) | 5 (5=81-100%) | 5 (5=81-100%) | 4 (4=61-80%) | 5 (5=81-100%) | 5 (5=81-100%) |
| Cc1nnc(Cn2cc(C(F)(F)F)nc2-c2cnc(F)c(Cl)c2)s1 [Compound 1.164] | 4 (4=61-80%) | 5 (5=81-100%) | 5 (5=81-100%) | 5 (5=81-100%) | 2 (2=21-40%) | 3 (3=41-60%) | 4 (4=61-80%) | 5 (5=81-100%) |
| Cn1cnc(Cn2cc(C(F)(F)F)nc2-c2cnc(F)c(Cl)c2)n1 [Compound 1.165] | 5 (5=81-100%) | 5 (5=81-100%) | 5 (5=81-100%) | 5 (5=81-100%) | 5 (5=81-100%) | 5 (5=81-100%) | 5 (5=81-100%) | 5 (5=81-100%) |
| Cc1noc(Cn2cc(C(F)(F)F)nc2-c2cnc(Cl)c(F)c2)n1 [Compound 1.166] | 1 (1=0-20%) | 5 (5=81-100%) | 5 (5=81-100%) | 5 (5=81-100%) | 1 (1=0-20%) | 2 (2=21-40%) | 4 (4=61-80%) | 4 (4=61-80%) |
| Cc1nc(Cn2cc(C(F)(F)F)nc2-c2cnc(Cl)c(F)c2)no1 [Compound 1.167] | 5 (5=81-100%) | 5 (5=81-100%) | 5 (5=81-100%) | 5 (5=81-100%) | 5 (5=81-100%) | 4 (4=61-80%) | 5 (5=81-100%) | 5 (5=81-100%) |
| Cc1nc(Cn2cc(C(F)(F)F)nc2-c2ccc(F)c(F)c2)no1 [Compound 1.168] | 5 (5=81-100%) | 5 (5=81-100%) | 5 (5=81-100%) | 5 (5=81-100%) | 5 (5=81-100%) | 5 (5=81-100%) | 5 (5=81-100%) | 5 (5=81-100%) |
| Cc1noc(Cn2cc(C(F)(F)F)nc2-c2ccc(F)c(F)c2)n1 [Compound 1.169] | 4 (4=61-80%) | 5 (5=81-100%) | 5 (5=81-100%) | 5 (5=81-100%) | 3 (3=41-60%) | 3 (3=41-60%) | 5 (5=81-100%) | 5 (5=81-100%) |
| Cn1cnc(Cn2cc(C(F)(F)F)nc2-c2ccc(S(C)(=O)=O)cc2)n1 [Compound 1.170] | 4 (4=61-80%) | 5 (5=81-100%) | 5 (5=81-100%) | 5 (5=81-100%) | 2 (2=21-40%) | 3 (3=41-60%) | 5 (5=81-100%) | 5 (5=81-100%) |
| Cn1ccc(Cn2cc(C(F)(F)F)nc2-c2ccc(S(C)(=O)=O)cc2)n1 [Compound 1.171] | 1 (1=0-20%) | 3 (3=41-60%) | 4 (4=61-80%) | 4 (4=61-80%) | 1 (1=0-20%) | 2 (2=21-40%) | 1 (1=0-20%) | 1 (1=0-20%) |
| CCON=Cc1cn(Cc2ncn(C)n2)c(-c2cnc(Cl)c(F)c2)n1 [Compound 1.172] | 5 (5=81-100%) | 5 (5=81-100%) | 5 (5=81-100%) | 5 (5=81-100%) | 2 (2=21-40%) | 2 (2=21-40%) | 2 (2=21-40%) | 3 (3=41-60%) |
| Fc1ccc(-c2nc(C(F)(F)F)cn2Cc2ccc(Cl)s2)cc1F [Compound 1.173] | 1 (1=0-20%) | 1 (1=0-20%) | 5 (5=81-100%) | 5 (5=81-100%) | 2 (2=21-40%) | 1 (1=0-20%) | 4 (4=61-80%) | 5 (5=81-100%) |
| Fc1cc(-c2nc(C(F)(F)F)cn2Cc2ccc(Cl)s2)cnc1Cl [Compound 1.174] | 1 (1=0-20%) | 1 (1=0-20%) | 5 (5=81-100%) | 5 (5=81-100%) | 1 (1=0-20%) | 2 (2=21-40%) | 5 (5=81-100%) | 5 (5=81-100%) |
